Results taken from patent US5696164A, “Antifungal treatment of nails” (Johnson & Johnson Consumer Products, Inc., priority 1994, dated 1997).
In brackets after ≈: the same amount, converted by molar mass. Structures can show the parent of a compound that is named as a salt.

Assays:
[1] = Nail swelling-pH profile (urea/propylene carbonate/propylene glycol/N-acetyl-l-cysteine/water); parameters: species or system human; settings: FIG. 8; pH 3.2-7.0, 32 °C
Experimental: (§1) The experimental procedure was the following: Clean human nail clippings were equilibrated to a constant weight by placing them in a desiccator over saturated CaCl2.6H2 O solution (29% relative humidity at room temperature) for at least 48 hours before use. Approximately 30 mg of human nail clippings were weighed into a glass vial. The exact initial weight was recorded. Four grams of the test formulation (pre-warmed to 32° C.) was added into the vial and maintained at 32° C. under stirring in a Heating/Stirring Module (Reacti-Therm III, Pierce). The changes in nail weights were monitored at predetermined intervals over 48 hours. At the end of the swelling experiment, the nail sample was rinsed with a mixture of N,N-dimethylformamide and methanol (1:1) to remove surface-bound drug. The nail sample was then digested, and the drug concentration in nail was determined by high pressure liquid chromatography method as described by Badcock and Davies, Assay of itraconazole in nail clippings by reversed phase, high performance liquid chromatography, Ann. Clin. Biochem, 27 (1990) 506-508.
It should be noted that, unlike the itraconazole formulations discussed above, which were tested at pH 3, the pH value of the miconazole nitrate formulation was set at pH 9. […] This was confirmed by the swelling-pH profile shown in FIG. 8, using the following formulation: […]

[2] = calcium thioglycolate added directly into ointment; cited from earlier work
yeasts = settings: "as low as"; cited from earlier work
[3] = as the formulation pH increases; cited from earlier work
dermatophites = settings: "as low as"; cited from earlier work
[4] = after nail avulsion; cited from earlier work
[5] = Nail swelling of human nail clippings in itraconazole formulations; settings: FIG. 3a, 32 °C, 48 h
Experimental: The experimental procedure was the following: Clean human nail clippings were equilibrated to a constant weight by placing them in a desiccator over saturated CaCl2.6H2 O solution (29% relative humidity at room temperature) for at least 48 hours before use. Approximately 30 mg of human nail clippings were weighed into a glass vial. The exact initial weight was recorded. Four grams of the test formulation (pre-warmed to 32° C.) was added into the vial and maintained at 32° C. under stirring in a Heating/Stirring Module (Reacti-Therm III, Pierce). The changes in nail weights were monitored at predetermined intervals over 48 hours. […]
The nail swelling was expressed by the percentage of the initial nail weight (i.e., 100% of the initial nail weight means no swelling, and 200% means a nail swelling doubling the original weight, etc). An enhancement factor is used to show the increase in nail swelling due to the presence of nail penetration enhancer in comparison to the control, which were calculated according to the formula: enhancement factor=(% weight gain of the test nail sample)/(% weight gain of control nail sample, i.e., no enhancer & urea in the formulation). […] The drug concentration in nail was calculated by dividing the amount of the drug in nail (mg) by the weight of the initial nail clipping (i.e., dry nail weight in gram). […]

[6] = Miconazole nitrate partitioning into nail; type: in vitro ADME, human; settings: FIG. 7; 1% miconazole nitrate, 20% urea, 10% N-acetyl-l-cysteine cream, pH 9.0
Experimental: as §1
(§2) A nail swelling and drug partitioning experiment was also conducted for miconazole nitrate using procedures analogous to those described above. […]

[7] = Nail swelling in miconazole nitrate cream formulation; parameters: species or system human; settings: FIG. 7; 1% miconazole nitrate, 20% urea, 10% N-acetyl-l-cysteine cream, pH 9.0
Experimental: as §1, §2

[8] = prior to topical treatment of onychomycosis; cited from earlier work
[9] = Effect of urea on nail swelling/hydration in aqueous urea solutions; parameters: species or system human; settings: pH 4.5
Experimental: as §1
The effect of urea on nail swelling was investigated, using aqueous urea solutions of various concentrations at pH 4.5. […] For this reason, it is believed that the use of urea alone will not cause significant enhancement of drug permeation through the nail.

[10] = rats; skin pretreated with aqueous calcium thioglycolate solution; cited from earlier work

CC(=O)N[C@@H](CS)C(=O)O [N-acetyl-l-cysteine, N-Acetyl-l-cysteine]
working pH range [1]: wide working pH range

COc1ccc2c(c1)c(CC(=O)O)c(C)n2C(=O)c1ccc(Cl)cc1 [calcium salt of indomethacin, indomethacin]
drug absorption [2]: dramatically decreased the absorption

CCC(C)n1ncn(-c2ccc(N3CCN(c4ccc(OCC5COC(Cn6cncn6)(c6ccc(Cl)cc6Cl)O5)cc4)CC3)cc2)c1=O (centres unmarked) [itraconazole]
minimal inhibitory concentration (MIC) (yeasts): 0.1 µg/mL (≈ 0.142 µM) | solubility versus formulation pH [3]: decreases | minimal inhibitory concentration (MIC) (dermatophites): 0.1 µg/mL (≈ 0.142 µM)

CC(=O)N1CCN(c2ccc(OCC3COC(Cn4ccnc4)(c4ccc(Cl)cc4Cl)O3)cc2)CC1 (centres unmarked) [ketoconazole]
efficacy in topically treating onychomycosis [4]: effective

N[C@@H](CS)C(=O)O [l-cysteine]
rank of nail swelling enhancement [5]: highest nail swelling enhancement

Clc1ccc(COC(Cn2ccnc2)c2ccc(Cl)cc2Cl)c(Cl)c1 (centres unmarked) [miconazole nitrate]
miconazole partitioning into the nail [6]: substantial miconazole partitioning into the nail | nail swelling [7]: significant nail swelling

Clc1ccc(COC(Cn2ccnc2)c2ccc(Cl)cc2Cl)c(Cl)c1 (centres unmarked) [miconazole]
efficacy in topically treating onychomycosis [4]: effective

NC(N)=O [urea]
results of nonsurgical avulsion of nail dystrophies [8]: satisfactory results | nail hydration ([9]; 20% aqueous urea): 30% | nail hydration ([9]; 40% aqueous urea): 50%

insulin
transdermal drug permeation [10]: enhanced transdermal drug permeation
